Measurements taken from patent US8883723B2, “Conjugate of insulin and vitamin B12 for oral delivery” (Syracuse University, priority 2007, dated 2014).
Read-outs that look alike come from different tables or passages of the source.

Tests used:
obese subjects = conditions: cited from earlier work
[1] = Melting circular dichroism studies (222 nm); type: physicochemical; conditions: 50 mM HEPES
Description: Melting circular dichroism (CD) studies. Circular dichroism (CD) was performed on an Aviv model 202 spectrometer set at 222 nm with a 1 mL Quartz cuvette. All samples were prepared in 50 mM HEPES buffer (pH 9.7) with 25 mM carbonate and 10 mM EDTA and heated from 25 to 80° C. in 1° increments then cooled from 80 to 25° C. in the same increment. Sample concentrations ranged from 1.00 μM to 1.35 μM. […] All results were duplicated per batch and run for every batch prior to in vivo testing.

Intrinsic Factor = assay: Spectrophotometric Intrinsic Factor in vitro binding studies; conditions: 50 mM HEPES
Description: Intrinsic Factor binding studies. Intrinsic Factor (10 mg, […]) was dissolved in 1 mL dH2O. A 50 μL aliquot of B12-insulin was added to 950 μL of 50 mM HEPES buffer. Baseline was run against HEPES buffer and the first scan of B12-insulin was taken without Intrinsic Factor. A 5 μL aliquot of Intrinsic Factor was added to the B12-insulin, mixed and a second scan was taken. This procedure was repeated for five additions of Intrinsic Factor.

[2] = system: STZ-induced diabetic rat model; assay: Blood glucose response after oral gavage in the STZ-induced diabetic rat model; type: in vivo, Sprague Dawley rats; conditions: STZ-induced diabetic rats
Excerpt: To examine the in vivo efficacy of the B12-insulin conjugate, blood from the STZ-induced diabetic rat model was sampled by means of a jugular catheter prior to and subsequent to oral administration of the B12-insulin conjugate and compared to the blood glucose response following administration of an equimolar solution of free insulin (FIG. 8A and B).
Animals. Male Sprague Dawley rats (323±36; ±SD; n=12) were purchased pre-catheterised (Jugular vein) from Charles River Laboratories (Wilmington, Mass.), acclimatised for three days and then rendered insulin-deficient via infusion of streptozotocin (STZ; 60 mg/kg body weight) dissolved in citrate buffer and used within 15 min of preparation. Blood glucose concentration was assessed over four days to ensure fasting levels of greater than 14 mmol/L (>250 mg/dl) were reached. Animals were housed individually and maintained on a 12-hr light-dark (0600-1800 h) cycle with free access to food (standard laboratory chow; Scotts' Distributing, Inc) and water. Maintenance of animals and experimental protocols were conducted in accordance with federal regulations and approved by the Syracuse University Institutional Animal Care and Use Committee (Protocol Number SU 09-102)
Animal experimental design. On the day of experimentation, animals were fasted for 4 hours prior to the sampling of blood (50 μl) and the B12-insulin compound (100 nm/ml) was subsequently administered via oral gavage (1 ml). Blood was then sampled at 30-, 60-, 90-, 120-, 150-, 180-, 210-, 240-, 270- and 300-min after the administration of the conjugate for the calculation of area under the blood glucose curve (YSI 2300 STAT PLUS, YSI Incorporated, Yellow Springs, Ohio). Two control groups were used in this set of experiments; the first received a molar-equivalent concentration (100 nm) of free insulin (1 ml) while the second control group received the same quantity of the B12-insulin conjugate as the experimental group, however the conjugate was dissolved in 10^5-fold excess B12.

[3] = humans; cited from earlier work
humans [4] = conditions: cited from earlier work
[5] = in vivo; cited from earlier work
humans [6] = conditions: cited from earlier work; for decrease in caloric intake: total dose 2 nmol/m^2 body-surface area, 90-min infusion
[7] = oral-enteric route; cited from earlier work
[8] = native insulin, Tietze et al. 1953; cited from earlier work

## CC(C)CC(N(C)C)C1(c2ccc(Cl)cc2)CCC1 (stereo not drawn) [sibutramine]
Obese subjects
  mean weight loss: 10%
  reduction of acute caloric intake: 16%

## B12-insulin conjugate: Bovine insulin conjugated using CDI at B strand lysine29 to the 5′-hydroxyl group of B12; carbamate linked conjugate
[1]
  melting temperature (circular dichroism): ~65 °C
[1]; listed as B12-insulin
  melting temperature (circular dichroism): 55 °C
Intrinsic Factor
  binding to Intrinsic Factor: recognizing the B12-insulin conjugate
Intrinsic Factor; listed as insulin-B12 conjugate
  binding to Intrinsic Factor: successful binding
[2]; oral administration
  reduction of blood glucose levels compared with free insulin: more effective than free insulin
  time of nadir in the blood glucose response: 4 h
[2]; oral gavage 1 ml of 100 nm/ml, 300 min, vs equimolar free insulin, p=0.056
  greater decrease in the area under the blood glucose curve compared to free insulin: 4.7 fold

## Cyanocobalamin [B12]
[3]
  uptake capacity: 1-2 μg per dosage

## GLP-1(7-36)amide: Glucagon-like peptide-1 (7-36) amide, endogenous incretin peptide
Humans [4]; infusion, meta-analysis
  average acute reduction of food intake: 11.7%
Humans [4]; prandial subcutaneous injections for 5 days, obese but otherwise healthy subjects
  weight loss: 0.55 kg

## PYY3-36: truncated form of Peptide YY, endogenous appetite suppressing peptide
[5]
  time for plasma level to return to baseline after end of infusion: ≤ 30 min
Humans [6]; lean humans, i.v. infusion 0.8 pmol/kg/min, free-choice buffet meal 2 hours after end of infusion
  reduction in calorie intake: approximately 36%
Humans [6]; lean subjects
  decrease in caloric intake: 31%
Humans [6]; obese subjects
  decrease in caloric intake: 30%

## insulin
[7]
  bioavailability: about 5%
[8]
  half-life: 10 min
